Data reported in patent publication US20220389019A1, “TrkB POSITIVE ALLOSTERIC MODULATORS” (Université de Strasbourg, priority 2019, published 2022).

Experiments:
[1] = biological target: TrkB (Mus musculus, UniProt P15209); conditions: C57BL/6 male mice, 0.5 and 1 mg/kg i.p., 1 h, cortex and hippocampus, western blot
Experimental: After 1 hour (unless indicated otherwise), mice were decapitated, blood was collected and brains were rapidly removed on ice. […] The Anti-TrkB antibody is used to quantify the total amount of TrkB. Anti-tubulin is used as a loading control. […] Phosphorylated levels of TrkB are calculated as a ratio between phospho and total TrkB bands in each region
A volume of 10 μl/g body weight was injected. After 1 hour (unless indicated otherwise), mice were decapitated, blood was collected and brains were rapidly removed on ice. Cortex and hippocampus were subsequently dissected and tissues were rapidly washed in ice-cold PBS and transferred into ice-cold solubilization buffer before homogenization at 4° C. Samples were centrifuged at 10,000×g for 10 min at 4° C. Protein concentrations were determined, equal amounts of proteins were loaded, and western blots were performed as described above.
C57Bl6 male mice received an i.p injection of 0.5 and 1 mg/kg for 1 hour before their brain was carefully removed and their cortex and hippocampus were sub-dissected. […] The level of TrkB phosphorylation at Tyrosine 816 was analyzed by western blot (FIG. 3).

[2] = test system: TrkB; test: TrkB phosphorylation assay: potentiation of BDNF-induced TrkB phosphorylation in cortical neurons; type: cell-based; conditions: potentation at a PAM concentration of 10 nM of 0.4 nM BDNF-induced TrkB phosphorylation in cortical neurons
Description: It is meant by “positive allosteric modulator” (PAM), also known as allosteric enhancer or potentiator, a compound that induces an amplification of the effect of receptor's response to the primary ligand without directly activating the receptor. Within this invention, PAM TrkB activity is related to the potentation of BDNF effects on the functional activity of the TrkB receptor, measured in vitro or in vivo by mean of a specific TrkB receptor phosphorylation assay.
In Vitro Activity of LIT-TB Derivatives in a TrkB Phosphorylation Assay

[3] = biological target: TrkB (Homo sapiens, UniProt Q16620); conditions: PC12-TrkB cells, BDNF 1 nM
Sequence of TrkB (Homo sapiens, UniProt Q16620) (Q16620 32-822, species assumed): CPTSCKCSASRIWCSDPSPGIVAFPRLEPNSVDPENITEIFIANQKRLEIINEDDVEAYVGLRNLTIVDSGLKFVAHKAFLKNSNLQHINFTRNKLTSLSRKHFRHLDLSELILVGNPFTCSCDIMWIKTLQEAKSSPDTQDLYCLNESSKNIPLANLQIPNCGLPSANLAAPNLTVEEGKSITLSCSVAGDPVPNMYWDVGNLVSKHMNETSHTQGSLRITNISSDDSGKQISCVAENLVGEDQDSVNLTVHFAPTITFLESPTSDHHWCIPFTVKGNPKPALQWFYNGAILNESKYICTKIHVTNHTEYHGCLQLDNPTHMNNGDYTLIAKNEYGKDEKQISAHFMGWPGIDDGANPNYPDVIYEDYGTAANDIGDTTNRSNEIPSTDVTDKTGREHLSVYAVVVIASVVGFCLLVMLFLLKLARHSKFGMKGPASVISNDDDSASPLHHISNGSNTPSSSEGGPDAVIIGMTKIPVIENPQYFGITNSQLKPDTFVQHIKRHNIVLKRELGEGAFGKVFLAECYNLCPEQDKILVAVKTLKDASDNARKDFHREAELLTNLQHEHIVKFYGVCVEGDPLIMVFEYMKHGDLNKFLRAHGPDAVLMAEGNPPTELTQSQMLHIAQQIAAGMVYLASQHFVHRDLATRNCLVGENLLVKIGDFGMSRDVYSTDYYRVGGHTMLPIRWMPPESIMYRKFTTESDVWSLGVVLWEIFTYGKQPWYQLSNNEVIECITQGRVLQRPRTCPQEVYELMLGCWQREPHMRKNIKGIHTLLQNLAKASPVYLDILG
Experimental: (§1) Nnr5 PC12-TrkA and nnr5 PC12-TrkB cells are NGF-nonresponding mutant PC12 cells stably transfected with TrkA and TrkB, respectively. Activation of TrkA and TrkB was assessed in nnr5 PC12-TrkB or -TrkA cells by quantifying the level of phospho-Trk at Tyrosine 706 (Y706) after addition of BDNF (1 nM) or NGF (2 nM), respectively, for 15 min in presence or absence of TB001 at various concentrations (0.1, 10 and […]), as previously done. Activation of downstream signaling pathway was assessed by quantifying phospho-ERK in the same cells. Neurite outgrowth was determined by counting the number the number of cells bearing neurites longer than 2 cells in diameter, 48 hours after initial treatment, as described earlier.
(§2) Selectivity of LIT-TB001 toward signaling activation and biological function was tested in PC12-TrkB or PC12-TrkA cells, in presence of BDNF (TrkB) or NGF (TrkA). Key experiments were recapitulated in either TrkA or TrkB-expressing cells to test for TB selectivity: Trk phosphorylation, ERK phosphorylation and neurite outgrowth (FIG. 1).

[4] = biological target: TrkA (Homo sapiens, UniProt P04629); conditions: PC12-TrkA cells, presence or absence of NGF (2 nM)
Sequence of TrkA (P04629 33-796, species assumed): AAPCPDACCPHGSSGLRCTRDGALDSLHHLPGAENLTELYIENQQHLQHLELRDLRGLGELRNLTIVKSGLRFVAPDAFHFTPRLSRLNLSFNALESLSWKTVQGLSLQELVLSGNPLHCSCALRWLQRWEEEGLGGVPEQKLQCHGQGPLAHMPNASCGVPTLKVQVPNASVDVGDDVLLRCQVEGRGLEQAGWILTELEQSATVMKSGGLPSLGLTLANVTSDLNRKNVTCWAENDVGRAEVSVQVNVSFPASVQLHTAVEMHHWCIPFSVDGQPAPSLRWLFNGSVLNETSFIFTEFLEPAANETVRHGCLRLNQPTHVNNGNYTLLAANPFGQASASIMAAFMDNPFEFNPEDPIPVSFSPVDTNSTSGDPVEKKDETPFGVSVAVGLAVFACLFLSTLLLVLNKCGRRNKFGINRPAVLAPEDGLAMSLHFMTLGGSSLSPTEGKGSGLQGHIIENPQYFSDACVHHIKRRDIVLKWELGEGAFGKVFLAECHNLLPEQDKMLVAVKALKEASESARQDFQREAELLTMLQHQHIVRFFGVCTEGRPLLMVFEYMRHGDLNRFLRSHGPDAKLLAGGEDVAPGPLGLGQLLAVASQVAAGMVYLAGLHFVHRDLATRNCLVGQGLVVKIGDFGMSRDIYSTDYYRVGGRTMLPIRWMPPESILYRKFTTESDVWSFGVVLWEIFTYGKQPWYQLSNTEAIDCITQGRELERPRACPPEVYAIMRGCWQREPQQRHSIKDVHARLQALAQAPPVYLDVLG
Experimental: as §1, §2

[5] = test system: PC12-TrkB cells; conditions: BDNF, 48 hours
Experimental: as §1, §2

[6] = test system: 45 kinases; test: Kinome profile (ExpresS Diversity Kinase Panel, TR-FRET LANCE); type: biochemical; conditions: 10 μM
Experimental: FIG. 2 represents the […] inhibition of the catalytic activity of 45 kinases (ExpresS Diversity Kinase Panel, Eurofins Discovey, item # P10) by LIT-TB001 at a concentration of 10 μM. For each kinase, the effect of the compound on the ATP-induced kinase-mediated substrate phosphorylation is measured by the TR-FRET LANCE technology.
A kinome profile was next performed to test LIT-TB001 selectivity toward other kinases.

Sequence of TrkB (Mus musculus, UniProt P15209) (P15209 32-821): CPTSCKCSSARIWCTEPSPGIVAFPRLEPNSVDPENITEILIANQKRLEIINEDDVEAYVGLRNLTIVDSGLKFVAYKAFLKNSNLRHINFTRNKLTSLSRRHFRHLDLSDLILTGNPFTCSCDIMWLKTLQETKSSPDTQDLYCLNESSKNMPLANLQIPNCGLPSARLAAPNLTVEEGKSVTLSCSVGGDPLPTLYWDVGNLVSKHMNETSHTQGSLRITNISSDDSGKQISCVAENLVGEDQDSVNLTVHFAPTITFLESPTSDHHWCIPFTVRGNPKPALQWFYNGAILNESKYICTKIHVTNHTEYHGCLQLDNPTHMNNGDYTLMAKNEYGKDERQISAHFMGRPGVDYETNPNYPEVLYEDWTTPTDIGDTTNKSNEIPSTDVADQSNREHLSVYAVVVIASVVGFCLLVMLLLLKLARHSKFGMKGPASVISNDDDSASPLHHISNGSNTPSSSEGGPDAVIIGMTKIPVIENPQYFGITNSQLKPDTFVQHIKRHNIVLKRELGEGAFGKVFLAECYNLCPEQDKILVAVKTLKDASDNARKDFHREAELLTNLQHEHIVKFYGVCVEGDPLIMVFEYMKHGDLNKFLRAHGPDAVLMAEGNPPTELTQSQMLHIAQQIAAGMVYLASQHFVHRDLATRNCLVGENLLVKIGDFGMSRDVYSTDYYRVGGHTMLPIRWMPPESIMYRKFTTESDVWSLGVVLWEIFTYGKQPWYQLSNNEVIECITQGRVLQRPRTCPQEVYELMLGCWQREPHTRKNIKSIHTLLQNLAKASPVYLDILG

For CN1CCN(c2ccc3nnc(CCC(=O)NC4CCN(Cc5ccccc5)CC4)n3n2)CC1 [LIT-TB001, N-(1-benzylpiperidin-4-yl)-3-[6-(4-methylpiperazin-1-yl)-[1,2,4]triazolo[4,3-b]pyridazin-3-yl] propanamide], the “TrkB activation (phospho-TrkB/total TrkB) in the brain” value [1] was “efficiently increases TrkB activation in the brain”, the “PAM TrkB activity” value [2] was “+++ (+++: >35%)” and the “phosphorylation of ERK” value [3] was “induced only in the presence of BDNF”. The “phosphorylation of TrkB” value ([3]; 15 min) was “induced only in the presence of BDNF”, the “phosphorylation of ERK” value [4] was “did not induce phosphorylation of ERK or TrkA” and the “phosphorylation of TrkA” value [4] was “did not induce phosphorylation of ERK or TrkA”. For the same compound, the neurite outgrowth [5] was “potentiates BDNF-” and the “effect on catalytic activity of 45 kinases (among them TrkA)” value [6] was “does not activate neither block the catalytic activity of the tested kinases”.

CN1CCN(c2ccc3nnc(CCC(=O)N[C@H]4CCN(Cc5ccccc5)C[C@@H]4F)n3n2)CC1 [LIT-TB048, N-[(3S,4S)-1-benzyl-3-fluoropiperidin-4-yl]-3-[6-(4-methylpiperazin-1-yl)-[1,2,4]triazolo[4,3-b]pyridazin-3-yl]propanamide] was tested, and the “PAM TrkB activity” value [2] was “+++ (+++: >35%)”.

With CN1CCN(c2ccc3nnc(CCC(=O)N[C@@H]4CCN(Cc5ccccc5)C[C@H]4F)n3n2)CC1 [LIT-TB049, N-[(3R,4R)-1-benzyl-3-fluoropiperidin-4-yl]-3-[6-(4-methylpiperazin-1-yl)-[1,2,4]triazolo[4,3-b]pyridazin-3-yl]propanamide] the “PAM TrkB activity” value [2] was “+++ (+++: >35%)”.

In the case of COc1ccc(CN2CC[C@H](NC(=O)CCc3nnc4ccc(N5CCN(C)CC5)nn34)[C@@H](F)C2)cc1 [LIT-TB052, N-[(3S,4S)-3-fluoro-1-[(4-methoxyphenyl)methyl]piperidin-4-yl]-3-[6-(4-methylpiperazin-1-yl)-[1,2,4]triazolo[4,3-b]pyridazin-3-yl]propanamide], the “PAM TrkB activity” value [2] was “+++ (+++: >35%)”.

In the case of COc1ccc(CN2CC[C@@H](NC(=O)CCc3nnc4ccc(N5CCN(C)CC5)nn34)[C@H](F)C2)cc1 [LIT-TB053, N-[(3R,4R)-3-fluoro-1-[(4-methoxyphenyl)methyl]piperidin-4-yl]-3-[6-(4-methylpiperazin-1-yl)-[1,2,4]triazolo[4,3-b]pyridazin-3-yl]propanamide], the “PAM TrkB activity” value [2] was “++ (++: 20-35%)”.
